Laboratory results reported in US7230013B2, “C10 carbamoyloxy substituted taxane compositions” (Florida State University Research Foundation, Inc., priority 2000, dated 2007).

Assays:
HCT116 cells = experiment: In vitro cytotoxicity measured by the cell colony formation assay; assay type: cell-based; conditions: Homo sapiens, HCT-116; read-out: IN VITRO ID 50 (nm) HCT116
Experimental: In Vitro Cytotoxicity Measured by the Cell Colony Formation Assay
Four hundred cells (HCT116) were plated in 60 mm Petri dishes containing 2.7 mL of medium (modified McCoy's 5a medium containing 10% fetal bovine serum and 100 units/mL penicillin and 100 µg/mL streptomycin). The cells were incubated in a CO2 incubator at 37° C. for 5 h for attachment to the bottom of Petri dishes. The compounds identified in Example 2 were made up fresh in medium at ten times the final concentration, and then 0.3 mL of this stock solution was added to the 2.7 mL of medium in the dish. The cells were then incubated with drugs for 72 h at 37° C. At the end of incubation the drug-containing media were decanted, the dishes were rinsed with 4 mL of Hank's Balance Salt Solution (HBSS), 5 mL of fresh medium was added, and the dishes were returned to the incubator for colony formation. The cell colonies were counted using a colony counter after incubation for 7 days.

SMILES | melting point [°C] | IC50 (HCT116 cells) [nM]
CCNC(=O)O[C@H]1C(=O)[C@@]2(C)C([C@H](OC(=O)c3ccccc3)[C@]3(O)C[C@H](OC(=O)[C@H](O)[C@@H](NC(=O)OC(C)(C)C)c4cccs4)C(C)=C1C3(C)C)[C@]1(OC(C)=O)CO[C@@H]1C[C@@H]2O (some centres unmarked) (hydrate or solvate) [Compound 2722, 3′-Desphenyl-3′-(2-thienyl)-10-N-ethylcarbamoyl docetaxel] | 166 to 168 | 
CCNC(=O)O[C@H]1C(=O)[C@@]2(C)C([C@H](OC(=O)c3ccccc3)[C@]3(O)C[C@H](OC(=O)[C@H](O)[C@@H](NC(=O)OC(C)(C)C)c4cccs4)C(C)=C1C3(C)C)[C@]1(OC(C)=O)CO[C@@H]1C[C@@H]2O (some centres unmarked) [Compound 2722, 3′-Desphenyl-3′-(2-thienyl)-10-N-ethylcarbamoyl docetaxel] |  | < 1
